Source: patent US20230097157A1, “Bicyclic Pyridin-2-one and pyrimidin-4-one Derivatives Useful As a Factor XIa Inhibitors” (Janssen Pharmaceutica NV, priority 2021, published 2023)
Read-outs that look alike come from different tables or passages of the source.

How the values were obtained:
[1] = biological target: Factor XIa (Homo sapiens, UniProt P03951); test: Factor XIa inhibition assay (FLINT) utilizing a fluorophore-quencher pair peptide substrate 5Fam-[…]-K5Tamra; assay type: biochemical; settings: kinetic (KIN) reads; values in nM; read-out: FXIa KIN Inh IC50
Procedure, shortened: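 Compounds were tested as 11-point 3-fold dilutions from 100 nM (2% DMSO). They were preincubated 30 min with FXIa in 50 mM Tris pH 7.5, 5 mM CaCl2, then 15 μM fluorophore-quencher peptide was added. Cleavage was followed at 485/520 nm over 30 min, and IC50 was derived by 4-parameter logistic fit.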

[2] = biological target: human plasma kallikrein (Homo sapiens, UniProt P03952); test: Kallikrein inhibition assay (FLINT) utilizing a quenched AMC peptide substrate Z-Gly-Pro-Arg-AMC; assay type: biochemical; settings: kinetic (KIN) reads, read-out: Kallikrein KIN Inh IC50
Procedure, shortened: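 IC50 from a 4-parameter logistic fit of % inhibition from 11 concentrations (3-fold, top 1 μM, 2% DMSO). Compound pre-incubated 30 min with 2 nM enzyme in Tris pH 7.5, NaCl, CaCl2, BSA, CHAPS, then 50 μM AMC peptide substrate added. Fluorescence (340/440 nm) followed every 5 min for 30 min at room temperature.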

Chain of human plasma kallikrein (P03952 391-638 limits assumed): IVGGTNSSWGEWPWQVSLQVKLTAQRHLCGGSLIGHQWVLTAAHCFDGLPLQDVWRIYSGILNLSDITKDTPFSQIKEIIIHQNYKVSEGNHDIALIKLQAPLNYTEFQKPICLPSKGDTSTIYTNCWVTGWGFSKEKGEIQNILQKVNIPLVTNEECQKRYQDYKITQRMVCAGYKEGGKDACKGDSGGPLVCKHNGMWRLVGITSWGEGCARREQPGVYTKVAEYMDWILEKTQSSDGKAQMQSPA
Chain of human plasma kallikrein (P03952 20-390 partner limits assumed): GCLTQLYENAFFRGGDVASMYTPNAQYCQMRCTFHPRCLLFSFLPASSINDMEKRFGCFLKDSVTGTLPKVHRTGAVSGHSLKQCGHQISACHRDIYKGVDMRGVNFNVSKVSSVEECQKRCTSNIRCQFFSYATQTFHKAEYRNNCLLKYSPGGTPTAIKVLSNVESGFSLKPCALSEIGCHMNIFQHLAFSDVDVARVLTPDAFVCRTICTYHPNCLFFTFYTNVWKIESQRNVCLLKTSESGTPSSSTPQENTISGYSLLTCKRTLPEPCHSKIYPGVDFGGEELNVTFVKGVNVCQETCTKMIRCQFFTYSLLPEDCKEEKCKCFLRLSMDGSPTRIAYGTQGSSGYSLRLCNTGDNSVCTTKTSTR
Chain of Factor XIa (P03951 388-625 limits assumed): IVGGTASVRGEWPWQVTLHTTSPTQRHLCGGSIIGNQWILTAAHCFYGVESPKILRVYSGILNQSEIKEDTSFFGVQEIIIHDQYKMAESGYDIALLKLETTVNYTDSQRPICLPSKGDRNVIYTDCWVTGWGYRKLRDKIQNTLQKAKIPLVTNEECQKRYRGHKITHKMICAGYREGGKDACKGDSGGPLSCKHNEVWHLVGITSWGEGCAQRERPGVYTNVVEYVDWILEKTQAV
Chain of Factor XIa (P03951 19-387 partner limits assumed): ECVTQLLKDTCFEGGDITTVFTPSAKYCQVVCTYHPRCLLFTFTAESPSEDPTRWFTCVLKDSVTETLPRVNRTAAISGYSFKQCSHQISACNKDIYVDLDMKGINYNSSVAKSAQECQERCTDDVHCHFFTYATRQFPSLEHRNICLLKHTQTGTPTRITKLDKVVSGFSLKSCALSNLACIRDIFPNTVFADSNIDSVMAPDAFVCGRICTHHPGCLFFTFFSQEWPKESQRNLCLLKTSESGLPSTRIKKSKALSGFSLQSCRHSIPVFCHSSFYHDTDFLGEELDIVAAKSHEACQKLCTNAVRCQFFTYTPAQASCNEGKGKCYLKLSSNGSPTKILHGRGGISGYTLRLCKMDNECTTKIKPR

Row | IC50 [1] | IC50 ([2]; values in nM) | IC50 ([2]; unit μM) | Structure (SMILES)
1 | 14.9 nM | 97.8 nM | – | C[C@H]1C[C@@H](c2ncc(-c3ccnc(F)c3)[nH]2)n2c1cc(-c1c(-n3cnnn3)ccc(Cl)c1F)cc2=O (stereo in doubt) [Example 44, (1*S,3*S)-7-(3-Chloro-2-fluoro-6-(1H-tetrazol-1-yl)phenyl)-3-(5-(2-fluoropyridin-4-yl)-1H-imidazol-2-yl)-1-methyl-2,3-dihydroindolizin-5(1H)-one]
2 | 111 nM | 284 nM | – | C[C@@H]1C[C@H](c2ncc(-c3cnc(N)nc3)[nH]2)n2c1nc(-c1c(-n3cnnn3)ccc(Cl)c1F)cc2=O (stereo in doubt) [Example 114, (6*R,8*R)-6-(5-(2-Aminopyrimidin-5-yl)-1H-imidazol-2-yl)-2-(3-chloro-2-fluoro-6-(1H-tetrazol-1-yl)phenyl)-8-methyl-7,8-dihydropyrrolo[1,2-a]pyrimidin-4(6H)-one]
3 | 9.1 nM | 105 nM | – | Nc1ncc(-c2cnc([C@@H]3CC4(CC4)c4cc(-c5c(-n6cnnn6)ccc(Cl)c5F)cc(=O)n43)[nH]2)s1 [Example 18, (S)-3′-(5-(2-Aminothiazol-5-yl)-1H-imidazol-2-yl)-7′-(3-chloro-2-fluoro-6-(1H-tetrazol-1-yl)phenyl)-2′,3′-dihydro-5′H-spiro[cyclopropane-1,1′-indolizin]-5′-one]
4 | 0.5 nM | 3 nM | – | COC(=O)Nc1ccc(-c2cnc([C@@H]3C[C@H](C)c4nc(-c5c(-n6cnnn6)ccc(Cl)c5F)cc(=O)n43)[nH]2)cc1 (stereo in doubt) [Example 125, Methyl (4-(2-((6*S,8*S)-2-(3-Chloro-2-fluoro-6-(1H-tetrazol-1-yl)phenyl)-8-methyl-4-oxo-4,6,7,8-tetrahydropyrrolo[1,2-a]pyrimidin-6-yl)-1H-imidazol-5-yl)phenyl)carbamate]
5 | 0.6 nM | 1.3 nM | – | COC(=O)Nc1ccc(-c2cnc([C@@H]3C[C@@H](C)c4cc(-c5c(-n6cnnn6)ccc(Cl)c5F)cc(=O)n43)[nH]2)cc1 [Example 65, Methyl(4-(2-((1R,3S)-7-(3-chloro-2-fluoro-6-(1H-tetrazol-1-yl)phenyl)-1-methyl-5-oxo-1,2,3,5-tetrahydroindolizin-3-yl)-1H-imidazol-5-yl)phenyl)carbamate]
6 | 90.3 nM | – | 7100 nM | C[C@@H]1C[C@H](c2ncc(-c3cn[nH]c3)[nH]2)n2c1nc(-c1c(-n3cnnn3)ccc(Cl)c1F)cc2=O (stereo in doubt) [Example 108, (6*R,8*R)-6-(5-(1H-Pyrazol-4-yl)-1H-imidazol-2-yl)-2-(3-chloro-2-fluoro-6-(1H-tetrazol-1-yl)phenyl)-8-methyl-7,8-dihydropyrrolo[1,2-a]pyrimidin-4(6H)-one]
7 | 47.6 nM | 94 nM | – | C[C@H]1C[C@@H](c2ncc(-c3ccnc(C(F)(F)F)c3)[nH]2)n2c1nc(-c1c(-n3cnnn3)ccc(Cl)c1F)cc2=O (relative stereo) [Example 148, (6S*,8S*)-2-(3-Chloro-2-fluoro-6-(1H-tetrazol-1-yl)phenyl)-8-methyl-6-(5-(2-(trifluoromethyl)pyridin-4-yl)-1H-imidazol-2-yl)-7,8-dihydropyrrolo[1,2-a]pyrimidin-4(6H)-one]
8 | 8 nM | 23.8 nM | – | COc1cc(-c2cnc([C@H]3C[C@@H](C)c4nc(-c5c(-n6cnnn6)ccc(Cl)c5F)cc(=O)n43)[nH]2)ccn1 (stereo in doubt) [Example 99, (6*R,8*R)-2-(3-Chloro-2-fluoro-6-(1H-tetrazol-1-yl)phenyl)-6-(5-(2-methoxypyridin-4-yl)-1H-imidazol-2-yl)-8-methyl-7,8-dihydropyrrolo[1,2-a]pyrimidin-4(6H)-one]
9 | 8.3 nM | 52.9 nM | – | COC(=O)Nc1ccc(-c2cnc([C@H]3C[C@H](C)c4nc(-c5c(-n6cnnn6)ccc(Cl)c5F)cc(=O)n43)[nH]2)cc1 (stereo in doubt) [Example 124, Methyl (4-(2-((6*R,8*S)-2-(3-Chloro-2-fluoro-6-(1H-tetrazol-1-yl)phenyl)-8-methyl-4-oxo-4,6,7,8-tetrahydropyrrolo[1,2-a]pyrimidin-6-yl)-1H-imidazol-5-yl)phenyl)carbamate]
10 | 2.4 nM | 95.9 nM | – | C[C@H]1C[C@@H](c2ncc(-c3cn[nH]c3)[nH]2)n2c1nc(-c1c(-n3cnnn3)ccc(Cl)c1F)cc2=O (stereo in doubt) [Example 107, (6*S,8*S)-6-(5-(1H-Pyrazol-4-yl)-1H-imidazol-2-yl)-2-(3-chloro-2-fluoro-6-(1H-tetrazol-1-yl)phenyl)-8-methyl-7,8-dihydropyrrolo[1,2-a]pyrimidin-4(6H)-one]
11 | 283 nM | 747 nM | – | Cc1nc(N)c(F)cc1-c1cnc([C@H]2C[C@@H](C)c3nc(-c4c(-n5cnnn5)ccc(Cl)c4F)cc(=O)n32)[nH]1 (stereo in doubt) [Example 128, (6*R,8*R)-6-(5-(6-Amino-5-fluoro-2-methylpyridin-3-yl)-1H-imidazol-2-yl)-2-(3-chloro-2-fluoro-6-(1H-tetrazol-1-yl)phenyl)-8-methyl-7,8-dihydropyrrolo[1,2-a]pyrimidin-4(6H)-one]
12 | 2.2 nM | 11.4 nM | – | C[C@H]1C[C@@H](c2ncc(-c3ccc(NS(C)(=O)=O)cc3)[nH]2)n2c1cc(-c1c(-n3cnnn3)ccc(Cl)c1F)cc2=O [Example 11, N-(4-(2-((1S,3S)-7-(3-chloro-2-fluoro-6-(1H-tetrazol-1-yl)phenyl)-1-methyl-5-oxo-1,2,3,5-tetrahydroindolizin-3-yl)-1H-imidazol-5-yl)phenyl)methanesulfonamide]
13 | 22.1 nM | 54.8 nM | – | O=c1cc(-c2c(-n3cnnn3)ccc(Cl)c2F)nc2n1[C@H](c1nc(-c3ccnc(OCC(O)C(F)(F)F)c3F)c[nH]1)CC21CC1 (single isomer, unassigned) [Example 73, (S)-2′-(3-chloro-2-fluoro-6-(1H-tetrazol-1-yl)phenyl)-6′-(4-(3-fluoro-2-((S*)-3,3,3-trifluoro-2-hydroxypropoxy)pyridin-4-yl)-1H-imidazol-2-yl)-6′,7′-dihydro-4′H-spiro[cyclopropane-1,8′-pyrrolo[1,2-a]pyrimidin]-4′-one]
14 | 0.4 nM | 3.6 nM | – | C[C@@H]1C[C@@H](c2ncc(-c3ccc(N)nc3F)[nH]2)n2c1cc(-c1c(-n3cnnn3)ccc(Cl)c1F)cc2=O [Example 66, (1R,3S)-3-(5-(6-Amino-2-fluoropyridin-3-yl)-1H-imidazol-2-yl)-7-(3-chloro-2-fluoro-6-(1H-tetrazol-1-yl)phenyl)-1-methyl-2,3-dihydroindolizin-5(1H)-one]
15 | 62.1 nM | 246 nM | – | C[C@H]1C[C@@H](c2ncc(-c3ccnn3C)[nH]2)n2c1nc(-c1c(-n3cnnn3)ccc(Cl)c1F)cc2=O (stereo in doubt) [Example 144, (6S*,8S*)-2-(3-Chloro-2-fluoro-6-(1H-tetrazol-1-yl)phenyl)-8-methyl-6-(5-(1-methyl-1H-pyrazol-5-yl)-1H-imidazol-2-yl)-7,8-dihydropyrrolo[1,2-a]pyrimidin-4(6H)-one]
16 | 250 nM | 635 nM | – | Cc1c(-c2cnc([C@H]3C[C@H](C)c4cc(-c5c(-n6cnnn6)ccc(Cl)c5F)cc(=O)n43)[nH]2)ccnc1C#N (relative stereo) [Example 31, 4-(2-((1S*,3R*)-7-(3-Chloro-2-fluoro-6-(1H-tetrazol-1-yl)phenyl)-1-methyl-5-oxo-1,2,3,5-tetrahydroindolizin-3-yl)-1H-imidazol-5-yl)-3-methylpicolinonitrile]
17 | 43.7 nM | 54 nM | – | C[C@H]1C[C@@H](c2ncc(-c3ccn4nccc4c3)[nH]2)n2c1cc(-c1c(-n3cnnn3)ccc(Cl)c1F)cc2=O (stereo in doubt) [Example 53, (1*S,3*S)-7-(3-Chloro-2-fluoro-6-(1H-tetrazol-1-yl)phenyl)-1-methyl-3-(5-(pyrazolo[1,5-a]pyridin-5-yl)-1H-imidazol-2-yl)-2,3-dihydroindolizin-5(1H)-one]
18 | 19.6 nM | 167 nM | – | CC1CC(c2ncc(-c3ccnc(CO)c3F)[nH]2)n2c1nc(-c1c(-n3cnnn3)ccc(Cl)c1F)cc2=O (single isomer, unassigned) [Example 77, (6S*)-2-(3-Chloro-2-fluoro-6-(1H-tetrazol-1-yl)phenyl)-6-(5-(3-fluoro-2-(hydroxymethyl)pyridin-4-yl)-1H-imidazol-2-yl)-8-methyl-7,8-dihydropyrrolo[1,2-a]pyrimidin-4(6H)-one]
19 | 42.9 nM | 539 nM | – | C[C@@H]1C[C@H](c2ncc(-c3ccnc(CN)c3)[nH]2)n2c1cc(-c1c(-n3cnnn3)ccc(Cl)c1F)cc2=O (relative stereo) [Example 38, (1*R,3*R)-3-(5-(2-(Aminomethyl)pyridin-4-yl)-1H-imidazol-2-yl)-7-(3-chloro-2-fluoro-6-(1H-tetrazol-1-yl)phenyl)-1-methyl-2,3-dihydroindolizin-5(1H)-one]
20 | 0.2 nM | 3.5 nM | – | COC(=O)Nc1ccc(-c2cnc([C@@H]3C[C@H](C)c4cc(-c5c(-n6cnnn6)ccc(Cl)c5F)cc(=O)n43)[nH]2)cc1 [Example 63, Methyl(4-(2-((1S,3S)-7-(3-chloro-2-fluoro-6-(1H-tetrazol-1-yl)phenyl)-1-methyl-5-oxo-1,2,3,5-tetrahydroindolizin-3-yl)-1H-imidazol-5-yl)phenyl)carbamate]
